Source: patent US20060063759A1, “Tricyclic steroid hormone nuclear receptor modulators” (priority 2002, published 2006)

Tests used:
[1] = target: T1, human MR (Homo sapiens, UniProt P08235); test: Mineralocorticoid Receptor Binding Assay ([3H]-aldosterone); conditions: [3H]-aldosterone binding, human MR expressed in Sf9 cells; read-out: MR Ki
T1 construct: The full length human MR gene is cloned from a human kidney or human brain cDNA library; His tag from the pAcHLT vector (own knowledge); made in house; host or cells: Sf9 insect cells (baculovirus, pAcHLT transfer vector)
T1 sequence (P08235 1-984): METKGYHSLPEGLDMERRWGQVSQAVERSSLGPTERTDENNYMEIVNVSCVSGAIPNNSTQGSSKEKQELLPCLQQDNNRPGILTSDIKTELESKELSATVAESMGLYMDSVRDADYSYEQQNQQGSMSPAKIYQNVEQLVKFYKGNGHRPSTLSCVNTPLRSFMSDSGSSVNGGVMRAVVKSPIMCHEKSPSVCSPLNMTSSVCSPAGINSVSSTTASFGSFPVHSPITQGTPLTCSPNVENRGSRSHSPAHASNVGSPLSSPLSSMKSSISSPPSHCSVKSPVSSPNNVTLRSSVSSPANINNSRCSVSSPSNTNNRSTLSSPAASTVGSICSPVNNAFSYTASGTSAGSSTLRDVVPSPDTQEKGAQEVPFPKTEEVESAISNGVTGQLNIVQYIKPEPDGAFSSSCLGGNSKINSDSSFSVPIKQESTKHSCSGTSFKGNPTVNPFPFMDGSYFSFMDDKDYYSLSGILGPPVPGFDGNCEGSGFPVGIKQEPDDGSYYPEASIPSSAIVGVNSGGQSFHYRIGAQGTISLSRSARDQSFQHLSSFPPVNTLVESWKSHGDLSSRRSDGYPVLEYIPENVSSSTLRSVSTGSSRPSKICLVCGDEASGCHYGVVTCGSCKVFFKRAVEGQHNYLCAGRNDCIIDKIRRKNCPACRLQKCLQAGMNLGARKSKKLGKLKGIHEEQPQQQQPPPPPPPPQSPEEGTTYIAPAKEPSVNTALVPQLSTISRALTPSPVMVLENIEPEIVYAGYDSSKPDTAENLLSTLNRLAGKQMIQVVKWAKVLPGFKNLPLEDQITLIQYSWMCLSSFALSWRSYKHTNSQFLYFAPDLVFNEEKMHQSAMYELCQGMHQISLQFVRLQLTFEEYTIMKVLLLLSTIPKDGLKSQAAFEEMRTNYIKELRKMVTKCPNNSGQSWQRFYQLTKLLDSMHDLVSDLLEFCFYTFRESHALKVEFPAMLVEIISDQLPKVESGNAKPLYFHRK
In short: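 Lysate supernatant of Sf9 cells expressing full-length human MR (20-25 μg protein) was incubated with 0.5 nM [3H]-aldosterone and test compound in molybdate/Tris/phosphate/glycerol buffer, pH 7.5, ~16 h at 4 °C. Bound ligand was filtered and counted by scintillation; IC50 is the concentration halving [3H]-aldosterone binding.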

[2] = target: T2, glucocorticoid receptor (Homo sapiens, UniProt P04150); test: Glucocorticoid Receptor Binding Assay ([3H]-dexamethasone, A549 cell extract); conditions: [3H]-dexamethasone binding, read-out: GR Ki
T2 construct: containing 50-200 ug of A549 cell extract and 1.86 nM [^3H]-dexamethasone; host or cells: A549 human lung epithelial cells (sonicated cell extract)
T2 sequence (P04150 1-777): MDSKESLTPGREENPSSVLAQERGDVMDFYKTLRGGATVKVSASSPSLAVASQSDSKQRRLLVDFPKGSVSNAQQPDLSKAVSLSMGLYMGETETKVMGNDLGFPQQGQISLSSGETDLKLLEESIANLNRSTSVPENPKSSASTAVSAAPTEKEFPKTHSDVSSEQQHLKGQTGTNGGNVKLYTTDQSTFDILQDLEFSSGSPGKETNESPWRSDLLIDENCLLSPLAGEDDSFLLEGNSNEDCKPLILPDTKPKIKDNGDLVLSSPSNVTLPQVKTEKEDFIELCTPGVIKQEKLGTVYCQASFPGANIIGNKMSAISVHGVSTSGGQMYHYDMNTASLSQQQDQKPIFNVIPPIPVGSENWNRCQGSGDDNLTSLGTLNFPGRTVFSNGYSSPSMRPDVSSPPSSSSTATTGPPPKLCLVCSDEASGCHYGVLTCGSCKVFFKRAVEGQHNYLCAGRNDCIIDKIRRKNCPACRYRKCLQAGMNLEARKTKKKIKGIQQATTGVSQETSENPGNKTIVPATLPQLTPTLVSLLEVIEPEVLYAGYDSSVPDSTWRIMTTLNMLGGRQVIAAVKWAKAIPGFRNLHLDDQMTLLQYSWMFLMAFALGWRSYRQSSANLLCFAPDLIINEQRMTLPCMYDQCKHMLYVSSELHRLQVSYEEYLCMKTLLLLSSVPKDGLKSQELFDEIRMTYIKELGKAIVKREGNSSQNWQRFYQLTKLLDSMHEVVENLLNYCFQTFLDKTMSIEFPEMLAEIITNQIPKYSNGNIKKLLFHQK
In short: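 A549 cell extract (50–200 ug) incubated with 1.86 nM [3H]-dexamethasone and test compound for 16 h at 4 °C in Tris-HCl pH 7.2 buffer with glycerol and molybdate. Unbound radioligand removed by dextran-coated charcoal, then supernatant bound counts measured by scintillation.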

SMILES	Ki [1]	Ki [2]
C(=C1c2ccccc2CCc2sccc21)c1ccccc1 [Example 489]	< 500 nM	< 10000 nM
Clc1ccc(C=C2c3ccccc3CCc3sccc32)c(Cl)c1 [Example 490]	< 1000 nM	< 10000 nM
Cc1cc(C)cc(C=C2c3ccccc3CCc3sccc32)c1 [Example 491]	< 500 nM	< 10000 nM
CS(=O)(=O)Nc1cccc(/C=C2\c3ccc(Cl)cc3CCc3sccc32)c1 [Example 496]	< 500 nM	< 500 nM
Nc1cccc(C=C2c3ccccc3CCc3ccsc32)c1 [Example 498]	< 500 nM	< 1000 nM
CS(=O)(=O)Nc1cccc(/C=C2/c3ccc(Cl)cc3CCc3sccc32)c1 [Example 499]	< 500 nM	< 500 nM
CS(=O)(=O)Nc1cccc(/C=C2\c3ccccc3CCc3ccsc32)c1 [Example 501]	< 500 nM	< 500 nM
CS(=O)(=O)Nc1cccc(/C=C2/c3ccccc3CCc3ccsc32)c1 [Example 502]	< 500 nM	< 500 nM
O=S(=O)(Nc1cccc(/C=C2/c3ccccc3CCc3sccc32)c1)c1ccccc1 [Example 503]	< 500 nM	< 500 nM
CS(=O)(=O)Nc1cccc(C=C2c3ccccc3CCc3occc32)c1 [Example 504]	< 500 nM	< 500 nM
Oc1cccc(/C=C2/c3ccccc3CCc3ncccc32)c1 [Example 507]	< 500 nM	< 500 nM
Oc1cccc(/C=C2/c3ccccc3CCc3ccncc32)c1 [Example 514]	< 1000 nM	< 500 nM
CS(=O)(=O)Nc1cccc(/C=C2\c3ccccc3CCc3ccncc32)c1 [Example 515]	< 500 nM	< 10000 nM
CS(=O)(=O)Nc1cccc(C[C@H]2c3ccccc3CCc3ncccc32)c1 [Example 517]	< 500 nM	< 1000 nM
O=c1[nH]c2ccc(/C=C3/c4ccc(F)cc4CCc4ncccc43)cc2[nH]1 [Example 518]	< 500 nM	< 500 nM
CS(=O)(=O)Nc1cccc(CC2c3ccc(F)cc3CCc3ncccc32)c1 (centres unmarked) [Example 519]	< 500 nM	< 500 nM
CS(=O)(=O)Nc1cccc(CC2c3ccc(F)cc3CCc3ncccc32)c1 (centres unmarked) [Example 520]	< 500 nM	< 500 nM
Nc1ccccc1/C=C1\c2ccc(F)cc2CCc2ncccc21 [Example 530]	< 500 nM	< 500 nM
O=c1[nH]c2cc(/C=C3\c4ccc(F)cc4CCc4ncccc43)ccc2s1 [Example 536]	< 500 nM	< 500 nM
CS(=O)(=O)Nc1cccc(CC2c3ccccc3CCc3cccnc32)c1 (centres unmarked) [Example 538]	< 500 nM	< 500 nM
Fc1ccc2c(c1)CCc1ncccc1/C2=C/c1ccccc1C(F)F [Example 539]	< 500 nM	< 500 nM
Fc1ccc2c(c1)CCc1ncccc1/C2=C\c1ccccc1C(F)F [Example 540]	< 500 nM	< 500 nM
CS(=O)(=O)Nc1cc(F)cc(/C=C2\c3ccc(Cl)cc3CCc3cccnc32)c1 [Example 548]	< 500 nM	< 10000 nM

Results, then the compound that gave them:

Ki [1]	Ki [2]	SMILES
< 500 nM	< 500 nM	CS(=O)(=O)Nc1cc(F)cc(/C=C2\c3ccc(F)cc3CCc3ncccc32)c1 [Example 488, (E)-N-[3-Fluoro-5-(8-fluoro-10,11-dihydro-benzo[4,5]cyclohepta[1,2-b]pyridin-5-ylidenemethyl)-phenyl]-methanesulfonamide]
< 500 nM	< 500 nM	CS(=O)(=O)Nc1ccc(C=C2c3ccccc3CCc3sccc32)cc1 [Example 495]
< 500 nM	< 1000 nM	CS(=O)(=O)Nc1cccc(C=C2c3ccccc3CCc3ncccc32)c1 [Example 505]
< 500 nM	< 500 nM	CS(=O)(=O)Nc1cccc(/C=C2\c3ccccc3CCc3ncccc32)c1 [Example 506]
< 500 nM	< 10000 nM	CS(=O)(=O)Nc1cccc(/C=C2/c3ccc(F)cc3CCc3ncccc32)c1 [Example 510]
< 500 nM	< 500 nM	CS(=O)(=O)Nc1cccc(/C=C2/c3ccc(F)cc3CCc3nc(C(F)(F)F)ccc32)c1 [Example 521]
< 500 nM	< 500 nM	CS(=O)(=O)Nc1cccc(/C=C2\c3ccc(F)cc3CCc3nc(C(F)(F)F)ccc32)c1 [Example 522]
< 500 nM	< 500 nM	CS(=O)(=O)Nc1cc(/C=C2\c3ccc(F)cc3CCc3ncccc32)ccc1F [Example 524]
< 500 nM	< 500 nM	CS(=O)(=O)Nc1cc(F)cc(/C=C2/c3ccc(F)cc3CCc3ncccc32)c1 [Example 525]
< 500 nM	< 10000 nM	Fc1ccc2c(c1)CCc1ncccc1/C2=C/c1ccccc1 [Example 526]
< 500 nM	< 10000 nM	Fc1ccc2c(c1)CCc1ncccc1/C2=C\c1ccccc1 [Example 527]
< 500 nM	< 1000 nM	Oc1ccc(/C=C2\c3ccc(F)cc3CCc3ncccc32)cc1 [Example 528]
< 500 nM	< 10000 nM	Oc1ccc(/C=C2/c3ccc(F)cc3CCc3ncccc32)cc1 [Example 529]
< 500 nM	< 500 nM	Nc1ccccc1/C=C1/c2ccc(F)cc2CCc2ncccc21 [Example 531]
< 500 nM	< 1000 nM	Nc1cccc(/C=C2\c3ccc(F)cc3CCc3ncccc32)c1 [Example 532]
< 500 nM	< 1000 nM	Nc1cccc(/C=C2/c3ccc(F)cc3CCc3ncccc32)c1 [Example 533]
< 500 nM	< 10000 nM	Nc1ccc(/C=C2\c3ccc(F)cc3CCc3ncccc32)cc1 [Example 534]
< 1000 nM	< 10000 nM	Nc1ccc(/C=C2/c3ccc(F)cc3CCc3ncccc32)cc1 [Example 535]
< 500 nM	< 10000 nM	CS(=O)(=O)Nc1ccc(/C=C2/c3ccc(F)cc3CCc3ncccc32)cc1 [Example 537]
< 500 nM	< 1000 nM	Fc1ccc2c(c1)CCc1ncccc1/C2=C/c1cccc(C(F)F)c1 [Example 541]
< 500 nM	< 10000 nM	Fc1ccc2c(c1)CCc1ncccc1/C2=C\c1cccc(C(F)F)c1 [Example 542]
< 500 nM	< 10000 nM	Fc1ccc2c(c1)CCc1ncccc1/C2=C/c1ccc(C(F)F)cc1 [Example 543]
< 500 nM	< 1000 nM	Fc1ccc2c(c1)CCc1ncccc1/C2=C\c1ccc(C(F)F)cc1 [Example 544]
< 500 nM	< 10000 nM	CC(=O)Nc1cccc(/C=C2\c3ccc(F)cc3CCc3ncccc32)c1 [Example 545]
< 500 nM	< 500 nM	CS(=O)(=O)Nc1cccc(/C=C2/c3ccc(F)cc3CCc3nc(C#N)ccc32)c1 [Example 546]
< 500 nM	< 500 nM	CS(=O)(=O)Nc1cccc(/C=C2\c3ccc(F)cc3CCc3nc(C#N)ccc32)c1 [Example 547]
